Data: patent US8334315B2, “Substituted aromatic carboxamide and urea derivatives as vanilloid receptor ligands” (Gruenenthal GmbH, priority 2009, dated 2012)

Biological target: T1, rat-species vanilloid receptor 1 (VR1/TRPV1) (Rattus norvegicus, UniProt O35433)
T1 construct: endogenous in cells; host or cells: primary cells dissociated from rat dorsal root ganglia (DRG), cultured 2-3 days with NGF
Experiment: Functional test on rat VR1, NADA (N-arachidonoyl dopamine) stimulus
Type: cell-based
Design: key to Ki (rat) NADA: agonist / partial agonist / no effect: AG=agonist; pAG=partial agonist; NE=no effect
From the text: I. Functional Testing Carried Out on the Vanilloid Receptor 1 (VRI/TRPV1 Receptor)
The agonistic or antagonistic effect of the substances to be tested on the rat-species vanilloid receptor 1 (VR1/TRPV1) can be determined using the following assay. In this assay, the influx of Ca^2+ through the receptor channel is quantified with the aid of a Ca^2+-sensitive dye (type Fluo-4, Molecular Probes Europe BV, Leiden, the Netherlands) in a fluorescent imaging plate reader (FLIPR, Molecular Devices, Sunnyvale, USA).
The vertebral column is removed from decapitated rats and placed immediately into cold HBSS buffer (Hank's buffered saline solution, Gibco Invitrogen GmbH, Karlsruhe, Germany), i.e. buffer located in an ice bath, mixed with 1% by volume (per cent by volume) of an AA solution (antibiotic/antimyotic solution, PAA, Pasching, Austria). […] The resulting pellet is respectively taken up in 250 μL of complete medium and the cell count is determined.
The number of cells in the suspension is set to 3×10^5 per ml and 150 μL of this suspension are in each case introduced into a recess in the cell culture plates coated as described hereinbefore. […] The Ca^2+-dependent fluorescence is in this case measured before and after the addition of substances (λex=488 nm, λem=540 nm). Quantification is carried out by measuring the highest fluorescence intensity (FC, fluorescence counts) over time. […]

T1 sequence (O35433 whole entry): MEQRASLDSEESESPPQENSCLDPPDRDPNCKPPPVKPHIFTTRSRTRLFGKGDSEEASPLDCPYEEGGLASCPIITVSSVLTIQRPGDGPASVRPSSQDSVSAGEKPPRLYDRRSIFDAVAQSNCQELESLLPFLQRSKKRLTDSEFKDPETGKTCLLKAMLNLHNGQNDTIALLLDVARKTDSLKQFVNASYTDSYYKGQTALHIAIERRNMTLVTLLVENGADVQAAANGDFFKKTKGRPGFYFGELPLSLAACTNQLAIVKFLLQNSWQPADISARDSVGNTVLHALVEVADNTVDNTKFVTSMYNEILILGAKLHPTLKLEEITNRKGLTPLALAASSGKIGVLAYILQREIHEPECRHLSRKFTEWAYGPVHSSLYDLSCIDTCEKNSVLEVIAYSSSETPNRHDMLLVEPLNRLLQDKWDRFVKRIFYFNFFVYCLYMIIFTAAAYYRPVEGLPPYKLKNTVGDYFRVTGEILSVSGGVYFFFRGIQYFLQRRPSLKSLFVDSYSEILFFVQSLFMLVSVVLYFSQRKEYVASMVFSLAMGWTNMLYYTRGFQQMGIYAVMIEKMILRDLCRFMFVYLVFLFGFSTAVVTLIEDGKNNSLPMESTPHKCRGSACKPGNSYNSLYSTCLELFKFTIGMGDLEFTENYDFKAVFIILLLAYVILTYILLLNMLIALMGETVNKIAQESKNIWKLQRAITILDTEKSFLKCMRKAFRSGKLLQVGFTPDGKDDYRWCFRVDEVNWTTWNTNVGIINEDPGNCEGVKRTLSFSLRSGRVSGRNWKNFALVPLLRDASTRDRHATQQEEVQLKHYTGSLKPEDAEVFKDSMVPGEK

Ki [nM] | Ki (rat) NADA: agonist / partial agonist / no effect | Structure (SMILES)
39.1 |  | CC(C)(C)c1cc(CNC(=O)Nc2ccc3c(c2)CCC3)n(-c2cccc(Cl)c2)n1 [Example 79, 1-((3-tert-butyl-1-(3-chlorophenyl)-1H-pyrazol-5-yl)methyl)-3-(2,3-dihydro-1H-inden-5-yl)urea]
 | AG | Cc1nc2ccc(C(C)C(=O)NCc3cc(C(F)(F)F)nn3-c3cccc(Cl)c3)cc2s1 (centres unmarked) [Example 45, N-((1-(3-chlorophenyl)-3-(trifluoromethyl)-1H-pyrazol-5-yl)methyl)-2-(2-methylbenzo[d]thiazol-6-yl)propanamide]
